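Method: 48-hour compound exposure of cells in 96-well plates, five concentrations, linear interpolation of endpoints. GI50 = concentration required for 50% inhibition of growth. At the TGI there is no net growth.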
Key:
Experiment in all cases: growth of human tumour cells (NCI), 48 h
NCI-H460 lung = test system: NCI-H460 lung
COLO 205 colon = test system: COLO 205 colon
MDA-MB-435 = test system: MDA-MB-435
RXF 393 renal = test system: RXF 393 renal
OVCAR-8 ovarian = test system: OVCAR-8 ovarian
MOLT-4 leukemia = test system: MOLT-4 leukemia
LOX IMVI melanoma = test system: LOX IMVI melanoma
EKVX NSCLC = test system: EKVX NSCLC
HCC-2998 colon = test system: HCC-2998 colon
MALME-3M melanoma = test system: MALME-3M melanoma

| SMILES | GI50 (NCI-H460 lung) [µM] | TGI (NCI-H460 lung) [µM] | GI50 (COLO 205 colon) [µM] | TGI (COLO 205 colon) [µM] | GI50 (MDA-MB-435) [µM] | TGI (MDA-MB-435) [µM] | GI50 (RXF 393 renal) [µM] | TGI (RXF 393 renal) [µM] | GI50 (OVCAR-8 ovarian) [µM] | TGI (OVCAR-8 ovarian) [µM] | GI50 (MOLT-4 leukemia) [µM] | TGI (MOLT-4 leukemia) [µM] | GI50 (LOX IMVI melanoma) [µM] | TGI (LOX IMVI melanoma) [µM] | GI50 (EKVX NSCLC) [µM] | TGI (EKVX NSCLC) [µM] | GI50 (HCC-2998 colon) [µM] | TGI (HCC-2998 colon) [µM] | GI50 (MALME-3M melanoma) [µM] | TGI (MALME-3M melanoma) [µM] |
| --- | --- | --- | --- | --- | --- | --- | --- | --- | --- | --- | --- | --- | --- | --- | --- | --- | --- | --- | --- | --- |
| COc1cccc(OC(=O)c2ccc(C(F)(F)F)nc2Nc2cc(Cl)ccc2C)c1 | 2.92 | 15.4 | 4.04 | > 100 | 24.2 | 58.2 | 0.245 | 0.987 | 24.2 | > 100 | 3.11 | 7.99 | 3.68 | 23.8 | 6.6 | 39.3 | – | – | – | – |
| O=C(OCc1ccc2ccccc2n1)c1cn(C2CC2)c2cc(N3CCN(Cc4ccc5ccccc5n4)CC3)c(F)cc2c1=O | 39.3 | > 100 | 49.6 | > 100 | 39.4 | > 100 | 63.6 | > 100 | 51.5 | > 100 | > 100 | > 100 | 29 | > 89.5 | 29.6 | > 100 | 34 | > 100 | 33.2 | > 84.2 |
| CO/N=C(\COc1ccc2c(c1)[nH]c1ccccc12)c1ccc(F)cc1 | > 100 | > 100 | > 100 | > 100 | > 100 | > 100 | 27.6 | > 100 | 10.4 | > 100 | – | – | > 100 | > 100 | 65.9 | > 100 | > 100 | > 100 | 22.8 | > 100 |
| CCCN(CCS(C)(=O)=O)Cc1ccc(-c2ccc3ncnc(Nc4ccc(OCc5cccc(F)c5)c(Cl)c4)c3c2)o1 | > 25 | > 25 | > 25 | > 25 | > 25 | > 25 | 24.9 | > 25 | > 25 | > 25 | 7.31 | > 25 | > 25 | > 25 | 0.195 | > 25 | > 25 | > 25 | > 25 | > 25 |
| CCOc1ccccc1C(=O)N1CCN(c2cc(Cl)cc(Cl)c2)CC1 | 0.0362 | 11.9 | 0.0287 | 0.0853 | 0.0157 | 0.0527 | 0.0175 | 1.06 | 0.0371 | 14.2 | 0.0424 | 21 | 0.031 | 13.1 | 0.0587 | 17.3 | 0.0381 | 10.7 | 0.624 | 22.9 |
| O=C1c2c(c3c4ccccc4[nH]c3c3ccc4ccccc4c23)C(=O)N1CCN1CCNCC1 | 1.1 | 2.6 | 1.78 | 3.6 | 1.67 | 3.11 | 1.76 | 3.39 | – | – | 0.487 | 1.88 | 1.63 | 3.11 | 1.59 | 3.15 | 1.63 | 3.15 | 1.57 | 3.18 |
| c1cnn2ncc(-c3ccnc(NCCCN4CCOCC4)n3)c2c1 | 6.56 | > 25 | 3.9 | 7.96 | 7.56 | > 25 | 3.34 | 7.78 | 7.03 | > 25 | 9.61 | > 25 | 5.18 | > 25 | 6.67 | > 25 | 9.29 | > 25 | 7.63 | 24.5 |
| NC(CSC1c2ccccc2-c2ccccc21)C(=O)O (centres undefined) | – | > 100 | – | > 100 | – | > 100 | – | > 100 | – | > 100 | – | > 100 | – | > 100 | – | > 100 | – | – | – | > 100 |
| OCC12C3C4C5C3C1C5C42 (centres undefined) | – | > 100 | – | > 100 | – | > 100 | – | > 100 | – | > 100 | – | > 100 | – | > 100 | – | > 100 | – | – | – | > 100 |
| O=C(O)CN1CCN(CC(=O)O)CC(=O)[O][Hg][O]C(=O)C1 | 19.8 | > 54.2 | 17.8 | 32.5 | 16.2 | 30.5 | 18.1 | 32.5 | 22.4 | 49.4 | 9.02 | 31.9 | 10.3 | 26.7 | 21 | 41.5 | – | – | 16.6 | 33 |
| O=C(/C=C\c1cccc([N+](=O)[O-])c1)/C=C/c1cccc([N+](=O)[O-])c1 | 6.61 | > 100 | 3.03 | 7.94 | 2.79 | 12.4 | 2.55 | 6.57 | 5.25 | > 100 | – | – | 1.73 | 4.56 | > 100 | > 100 | 2.6 | 6.9 | 37.9 | > 100 |
| CCOC(=O)C1=C(C)N(c2ccc(Cl)cc2)[C@]2(C#N)C(O)=C(Cl)C(Cl)=C(O)[C@]12C#N | > 100 | > 100 | 59.6 | > 100 | 44.8 | > 100 | > 100 | > 100 | > 100 | > 100 | > 100 | > 100 | 4.95 | > 100 | 6.24 | 43.2 | – | – | > 100 | > 100 |
| O=C1c2ccccc2-c2cc([N+](=O)[O-])c([N+](=O)[O-])cc21 | – | 3.06 | – | 4.71 | – | 3.27 | – | 2.64 | – | 3.57 | – | 4.36 | – | 2.12 | – | 4.11 | – | – | – | 4.95 |
| NNC(=O)CS(=O)(=O)Nc1ncccn1 | – | > 100 | – | > 100 | – | > 100 | – | > 100 | – | > 100 | – | – | – | > 100 | – | > 100 | – | – | – | > 100 |
| CN(C)CCCn1c(=O)c2ccccc2c2ccccc21 | 7.55 | 25.8 | 5.58 | 20.6 | 11.8 | 26.6 | 12.5 | 26.7 | 7.03 | > 100 | 6.46 | > 100 | 5.13 | 44 | 13.6 | 44.9 | 16.4 | 34.8 | – | – |
